This test concerns the target T1, recombinant human BACE-1 (rhBACE-1) (Homo sapiens, UniProt P56817).
T1 construct: expressed as only an extracellular region (amino acid 1-460 residues) of recombinant human β-secretase; His tag (C); purchased R&D systems (Minneapolis, Minn.); host or cells: murine myeloma cell line NS0
Description: BACE1 inhibitory activity, reverse phase HPLC quantitation of N-terminal fragment of fluorogenic substrate. It counts as biochemical. As to conditions: 1 μL of inhibitor solution in DMSO (100 μM) in 50 μL reaction; MES buffer pH 5.0; 37° C., 60 minutes. From the text: Experiment Regarding Measurement of BACE1 Inhibitory Activity
Enzyme Used in Measurement
As an enzyme having β-secretase activity, recombinant human BACE-1 (rhBACE-1) purchased from R&D systems (Minneapolis, Minn.) was used. rhBACE-1 is expressed as only an extracellular region (amino acid 1-460 residues) of recombinant human β-secretase, with a His tag at its carboxyl terminal in murine myeloma cell line, NS0. Purified secreted rhBACE1 is a mixture of a pro entity (about 75 kDa) and a mature entity (about 72 kDa).
Assessment of Enzyme Inhibitory Activity
Enzyme inhibitory activity of an inhibitor was assessed by quantitating an N-terminal fragment produced aftercleaving the substrate with BACE1 by reverse HPLC using (7-methoxycoumarin-4-yl)acetyl-[…]2,4-dinitrophenyl)-Arg-Arg-NH2 purchased from Peptide Institute (Osaka, Japan) as a substrate for BACE1. To 40 μL of 62.5 mM 2-(N-morpholino)ethansulfonic acid (MES)-CH3COOH—NaOH buffer (pH 5.0), were added 1 μL of a solution of an inhibitor diluted with DMSO (100 μM), 4 μL of rhBACE-1 (6.25 ng/μL), and 5 μL of an aqueous solution (50% DMSO) of 250 μM substrate (7-methoxycoumarin-4-yl)acetyl-[…]2,4-dinitrophenyl)-Arg-Arg-NH2 to initiate an enzyme reaction. After incubation at 37° C. for 60 minutes, 20 μL of 20% trichloroacetic acid was added to stop the reaction. And, inhibition % was calculated by measuring a fluorescent intensity of the N-terminal fragment (Ex, 328 nm; Em, 393 nm) using reverse phase HPLC (linear gradient of MeCN in aqueous TFA; flow rate, 1.0 mL/min).
BACE1 Inhibitory Activity
Enzyme inhibitory activity of an inhibitor was assessed by quantitating a N-terminal fragment produced after cleavage of a substrate with BACE1 by reverse phase HPLC using (7-methoxycoumarin-4-yl)acetyl-[…]2,4-dinitrophenyl)-Arg-Arg-NH2 purchased from Peptide Institute (Osaka, Japan) as a substrate for BACE1. Recombinant human BACE-1 purchased from R&D systems (Minneapolis, Minn.) was used. To 40 μL of 62.5 mM 2-(N-morpholino)ethansulfonic acid (MES)-CH3COOH—NaOH buffer (pH 5.0), were added 1 μL of a solution of an inhibitor diluted with DMSO (100 μM), 4 μL of BACE1 (6.25 ng/μL), and 5 μL of an aqueous solution (50% DMSO) of 250 μM substrate (7-methoxycoumarin-4-yl)acetyl-[…]2,4-dinitrophenyl)-Arg-Arg-NH2 to initiate an enzyme reaction. After incubation at 37° C. for 60 minutes, 20 μL of 20% trichloroacetic acid was added to stop a reaction. Inhibition % was calculated by measuring a fluorescent intensity of the N-terminal fragment (Ex, 328 nm; Em, 393 nm) using reverse phase HPLC (linear gradient of MeCN in aqueous TFA; flow rate, 1.0 mL/min).

Numbered stars: 1 amine (or outer) side, 2 acyl side, 3 side chain; on linkers, the order of the positions; unused ones are H or OH. Square brackets hold non-standard residues; d marks the D form. Peptide text beside a SMILES is read from it. * marks the point of attachment. ξ: configuration not given here. β3hPhe(2R-OH) = O=C([C@H](O)[C@H](Cc1ccccc1)N[*:1])[*:2]; X3 = CC(C)C[C@H](N[*:1])[C@@H](O)C(=O)[*:2]; Tetrazole5carbonyl = O=C(c1nn[nH]n1)*; Thz(5,5-Me2) = CC1(C)SCN[C@@H]1C(=O)O; 4Amb = NCc1ccc(C(=O)O)cc1; X1 = O=C(c1ccc(O)c(O)c1)*; 3Abz = Nc1cccc(C(=O)O)c1; 4Abz = Nc1ccc(C(=O)O)cc1; ξE = NC(CCC(=O)O)C(=O)O; 2Abz = Nc1ccccc1C(=O)O; Dap = NC[C@H](N)C(=O)O

T1 sequence (P56817 22-460 limits assumed): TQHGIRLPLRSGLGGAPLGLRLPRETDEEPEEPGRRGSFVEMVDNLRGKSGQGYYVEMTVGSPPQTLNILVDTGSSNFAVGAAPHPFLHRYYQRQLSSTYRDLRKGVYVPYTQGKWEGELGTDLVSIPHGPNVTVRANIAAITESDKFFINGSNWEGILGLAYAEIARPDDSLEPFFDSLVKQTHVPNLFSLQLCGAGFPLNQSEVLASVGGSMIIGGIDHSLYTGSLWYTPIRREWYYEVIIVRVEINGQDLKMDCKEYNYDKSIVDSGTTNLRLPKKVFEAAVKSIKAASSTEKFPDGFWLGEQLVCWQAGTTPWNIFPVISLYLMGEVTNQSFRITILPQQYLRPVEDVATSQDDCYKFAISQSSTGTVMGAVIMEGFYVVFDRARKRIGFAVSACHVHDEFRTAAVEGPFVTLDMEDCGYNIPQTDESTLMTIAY

For the compound “H-Glu-Val-Leu-Pns-Asp-Ala-Phe-Phe-OH (H-EVL[β3hPhe(2R-OH)]DAFF-OH; SMILES CC(C)C[C@H](NC(=O)[C@@H](NC(=O)[C@@H](N)CCC(=O)O)C(C)C)C(=O)N[C@@H](Cc1ccccc1)[C@@H](O)C(=O)N[C@@H](CC(=O)O)C(=O)N[C@@H](C)C(=O)N[C@@H](Cc1ccccc1)C(=O)N[C@@H](Cc1ccccc1)C(=O)O) [Example 31]”, the “Activity (BACE1 inhibition %)” value is 66.56%.
The term inhibition denotes the drop in the measured response relative to a control, in per cent. Consider `CC(C)C[C@H](NC(=O)[C@@H](NC(=O)[C@@H](N)CCC(=O)O)C(C)C)C(=O)N[C@@H](Cc1ccccc1)[C@@H](O)C(=O)N[C@@H](CC(=O)O)C(=O)Nc1cccc(C(=O)O)c1` [Example 79] (H-EVL[β3hPhe(2R-OH)]D[3Abz]-OH), for which the inhibition at 2 µM stood at 85.3%.
On the same count and under the same terms, with `CC(C)C[C@H](NC(=O)[C@@H](NC(=O)[C@@H](N)CCC(=O)O)C(C)C)C(=O)N[C@@H](Cc1ccccc1)[C@@H](O)C(=O)N[C@@H](CC(=O)O)C(=O)N[C@@H](C)C(=O)NCc1ccc(C(=O)O)cc1` [Example 108] (H-EVL[β3hPhe(2R-OH)]DA[4Amb]-OH) the figure was 51.3%.
Take `CC(C)[C@H](NC(=O)[C@@H](N)CNC(=O)c1[nH]c(=O)[nH]c(=O)c1F)C(=O)N[C@@H](CC1CCCCC1)C(=O)N[C@@H](Cc1ccccc1)[C@@H](O)C(=O)Nc1cccc(-c2nnn[nH]2)c1` [Example 189]: the inhibition at 100 µM (stock) stood at 100%.
As to `CC(C)C[C@H](NC(=O)[C@@H](NC(=O)[C@@H](N)CNC(=O)c1nnn[nH]1)C(C)C)C(=O)N[C@@H](Cc1ccccc1)[C@@H](O)C(=O)N[C@@H](CC(=O)O)C(=O)N[C@@H](C)C(=O)N[C@@H](CCC(=O)O)C(=O)O` [Example 73] (H-[Dap](Tetrazole5carbonyl)VL[β3hPhe(2R-OH)]DAE-OH), the inhibition at 2 µM was 93%.
With “H-Glu-Val-Leu-Pns-Gly-Ala-Glu-Phe-OH (H-EVL[β3hPhe(2R-OH)]GAEF-OH; SMILES CC(C)C[C@H](NC(=O)[C@@H](NC(=O)[C@@H](N)CCC(=O)O)C(C)C)C(=O)N[C@@H](Cc1ccccc1)[C@@H](O)C(=O)NCC(=O)N[C@@H](C)C(=O)N[C@@H](CCC(=O)O)C(=O)N[C@@H](Cc1ccccc1)C(=O)O) [Example 42]”, the “Activity (BACE1 inhibition %)” value came out at 56.72%.
Turning to `CCCC[C@H](NC(=O)[C@@H](NC(=O)[C@@H](N)CCC(=O)O)C(C)C)C(=O)N[C@@H](Cc1ccccc1)[C@@H](O)C(=O)Nc1cccc(C(=O)O)c1` [Example 141], the inhibition at 2 µM came out at 67.5%.
In the case of `CC(C)C[C@H](NC(=O)[C@@H](NC(=O)[C@@H](N)CCC(=O)O)C(C)C)C(=O)N[C@@H](Cc1ccccc1)[C@@H](O)C(=O)N[C@@H](CC(=O)O)C(=O)N[C@@H](Cc1ccccc1)C(=O)N[C@@H](CCC(=O)O)C(=O)N[C@@H](Cc1ccccc1)C(=O)O` [Example 80] (H-EVL[β3hPhe(2R-OH)]DFEF-OH), the inhibition at 2 µM is 83.2%.
As for “H-Glu-Val-Leu-Pns-Asp-Ala-Glu-Gly-OH (H-EVL[β3hPhe(2R-OH)]DAEG-OH; SMILES CC(C)C[C@H](NC(=O)[C@@H](NC(=O)[C@@H](N)CCC(=O)O)C(C)C)C(=O)N[C@@H](Cc1ccccc1)[C@@H](O)C(=O)N[C@@H](CC(=O)O)C(=O)N[C@@H](C)C(=O)N[C@@H](CCC(=O)O)C(=O)NCC(=O)O) [Example 45]”, the “Activity (BACE1 inhibition %)” value amounted to 66.79%.
On to `CC(C)C[C@H](NC(=O)[C@@H](NC(=O)[C@@H](N)CCC(=O)O)C(C)C)C(=O)N[C@@H](Cc1ccccc1)[C@@H](O)C(=O)N1CSC(C)(C)[C@H]1C(=O)N[C@@H](C)C(=O)NC(CCC(=O)O)C(=O)N[C@@H](Cc1ccccc1)C(=O)O` (stereo partly drawn) [Example 106] (H-EVL[β3hPhe(2R-OH)][Thz(5,5-Me2)]A[ξE]F-OH), for which the inhibition at 2 µM came out at 53%.
On the same count and under the same terms, with `CC(C)C[C@H](NC(=O)[C@@H](NC(=O)[C@@H](N)CNC(=O)c1cccc(O)c1O)C(C)C)C(=O)N[C@@H](Cc1ccccc1)[C@@H](O)C(=O)Nc1cccc(C(=O)O)c1` [Example 172] the figure was 89.5%; with `CC(C)[C@H](NC(=O)[C@@H](N)CCC(=O)O)C(=O)N[C@@H](Cc1cc2ccccc2[nH]1)C(=O)N[C@@H](Cc1ccccc1)[C@@H](O)C(=O)Nc1cccc(C(=O)O)c1` [Example 160], 71.3%.
`COC(=O)c1cc(N)cc(C(=O)NC[C@H](N)C(=O)N[C@H](C(=O)N[C@@H](CC(C)C)C(=O)N[C@@H](Cc2ccccc2)[C@@H](O)C(=O)Nc2cccc(C(=O)O)c2)C(C)C)c1` [Example 181]: the inhibition at 100 µM (stock) worked out at 82.5%.
For the compound `CC(C)C[C@H](NC(=O)[C@@H](NC(=O)[C@@H](N)CCC(=O)O)C(C)C)C(=O)N[C@@H](Cc1ccccc1)[C@@H](O)C(=O)Nc1ccc(CC(=O)O)cc1` [Example 89], the inhibition at 2 µM is 69.8%.
As for “H-Glu-Val-Leu-Pns-Glu-Ala-Glu-Phe-OH (H-EVL[β3hPhe(2R-OH)]EAEF-OH; SMILES CC(C)C[C@H](NC(=O)[C@@H](NC(=O)[C@@H](N)CCC(=O)O)C(C)C)C(=O)N[C@@H](Cc1ccccc1)[C@@H](O)C(=O)N[C@@H](CCC(=O)O)C(=O)N[C@@H](C)C(=O)N[C@@H](CCC(=O)O)C(=O)N[C@@H](Cc1ccccc1)C(=O)O) [Example 15]”, the “Activity (BACE1 inhibition %)” value was determined as 54.52%.
Regarding `CC(C)C[C@H](NC(=O)[C@@H](NC(=O)[C@@H](N)CCC(=O)O)C(C)C)C(=O)N[C@@H](CC(C)C)[C@@H](O)C(=O)N[C@@H](CC(=O)O)C(=O)N[C@@H](C)C(=O)N[C@@H](CCC(=O)O)C(=O)N[C@@H](Cc1ccccc1)C(=O)O` [Example 97] (H-EVL[X3]DAEF-OH), the inhibition at 2 µM came to 59.1%.
Same read-out and setting: with `CC(C)C[C@H](NC(=O)[C@@H](NC(=O)[C@@H](N)CCC(=O)O)C(C)(C)C)C(=O)N[C@@H](Cc1ccccc1)[C@@H](O)C(=O)Nc1cccc(C(=O)O)c1` [Example 151] the figure was 57%; with `CC(C)C[C@H](NC(=O)[C@@H](NC(=O)[C@@H](N)CCC(=O)O)C(C)C)C(=O)N[C@@H](Cc1ccccc1)[C@@H](O)C(=O)N[C@@H](CC(=O)O)C(=O)Nc1ccc(C(=O)O)cc1` [Example 76] (H-EVL[β3hPhe(2R-OH)]D[4Abz]-OH), 89.5%.
As to `CC(C)C[C@H](NC(=O)[C@@H](NC(=O)[C@@H](N)CNC(=O)c1ccc(O)c(O)c1)C(C)C)C(=O)N[C@@H](Cc1ccccc1)[C@@H](O)C(=O)N[C@@H](CC(=O)O)C(=O)N[C@@H](C)C(=O)N[C@@H](CCC(=O)O)C(=O)O` [Example 133] (H-[Dap](X1)VL[β3hPhe(2R-OH)]DAE-OH), the inhibition at 100 µM (stock) came out at 71.5%.
Regarding `CC(C)C[C@H](NC(=O)[C@@H](NC(=O)[C@@H](N)CCC(=O)O)C(C)C)C(=O)N[C@@H](Cc1ccccc1)[C@@H](O)C(=O)Nc1cc(Cl)c(O)c(Cl)c1` [Example 149], the inhibition at 2 µM came out at 80.1%.
For the compound `CC(C)C[C@H](NC(=O)[C@@H](NC(=O)[C@@H](N)CCC(=O)O)C(C)C)C(=O)N[C@@H](Cc1ccccc1)[C@@H](O)C(=O)N[C@H](CC(=O)O)C(=O)O` [Example 100] (H-EVL[β3hPhe(2R-OH)][dD]-OH), the inhibition at 2 µM was 56.9%.
Consider `CC(C)[C@H](NC(=O)[C@@H](N)CNC(=O)c1cc(O)ccc1O)C(=O)N[C@@H](CC1CCCCC1)C(=O)N[C@@H](Cc1ccccc1)[C@@H](O)C(=O)Nc1cccc(-c2nnn[nH]2)c1` [Example 188], for which the inhibition at 100 µM (stock) amounted to 99.5%.
As to `CC(C)C[C@H](NC(=O)[C@@H](NC(=O)[C@@H](N)CCC(=O)O)C(C)C)C(=O)N[C@@H](Cc1ccccc1)[C@@H](O)C(=O)N[C@H](C(=O)N[C@@H](C)C(=O)N[C@@H](CCC(=O)O)C(=O)N[C@@H](Cc1ccccc1)C(=O)O)C(C)C` [Example 96] (H-EVL[β3hPhe(2R-OH)]VAEF-OH), the inhibition at 2 µM was 59.2%.
In the case of `CC(C)C[C@H](NC(=O)[C@@H](NC(=O)[C@@H](N)CCC(=O)O)C(C)C)C(=O)N[C@@H](Cc1ccccc1)[C@@H](O)C(=O)N[C@@H](CC(=O)O)C(=O)Nc1ccccc1C(=O)O` [Example 78] (H-EVL[β3hPhe(2R-OH)]D[2Abz]-OH), the inhibition at 100 µM (stock) is 85.8%.
With `CCC[C@H](NC(=O)[C@@H](NC(=O)[C@@H](N)CCC(=O)O)C(C)C)C(=O)N[C@@H](Cc1ccccc1)[C@@H](O)C(=O)Nc1cccc(C(=O)O)c1` [Example 161], the inhibition at 2 µM stood at 64.7%.

These data come from patent US7312188B2, “Peptide derivatives having β-secretase inhibitory activity” (priority 2003, dated 2007).
